Data taken from ChEMBL document CHEMBL5537177, “Discovery of Potent Antimalarial Type II Kinase Inhibitors with Selectivity over Human Kinases” (J Med Chem, 2024).
The source made the active and inactive calls. No cut-off for these calls is given here.

Key:
[1] = Metabolic stability in mouse liver microsomes assessed as half life; assay type: ADME, Liver cells
Plasmodium falciparum [2] = experiment: (§1) Antimalarial activity against artemisinin-sensitive synchronized early ring stage Plasmodium falciparum IPC 5188 (MRA-1239) clinical isolate assessed as decrease in parasite survival at ring stage at 10 times EC50 treated for 48 hrs followed by compound removal measured after 72 hrs by geimsa staining based microscopy; assay type: functional, organism-based
Plasmodium falciparum [3] = experiment: Antimalarial activity against synchronous blood-stage Plasmodium falciparum 3D7 assessed as duration of lag phase at 10 times EC50 treated every 24 hrs for 120 hrs followed by compound washout and subsequent addition of RBCs measured after 21 days by parasite reduction ratio assay; assay type: functional
Plasmodium berghei [4] = experiment: (§2) Antimalarial activity against […] Plasmodium berghei sporozoites expressing GFP-Luc SMcon infected in Swiss Webster mouse assessed as reduction in parasitemia at 15 to 50 mg/kg, iv pretreated for 6 hrs followed by parasite infection measured for 2 to 16 days post-infection by SYBR Green I dye based flow cytometry; assay type: functional, organism-based; conditions: dose 15-50 mg/kg, time 2.25-16.25 day
[5] = Metabolic stability in mouse liver microsomes assessed as intrinsic clearance; assay type: ADME, Liver cells
Plasmodium falciparum [6] = experiment: Antimalarial activity against ring-stage Plasmodium falciparum Dd2 infected in O+ RBCs assessed as reduction in parasitemia incubated for 72 hrs by SYBR green I dye based analysis; assay type: functional, organism-based, RBC; conditions: Dd2, Erythrocyte
Plasmodium falciparum [7] = experiment: Antimalarial activity against synchronized Plasmodium falciparum Dd2 assessed as aberrant morphology of parasites at 5 times EC50 treated 42 hrs post-invasion measured after 54 hrs post-invasion by Geimsa staining based microscopy; assay type: functional, organism-based; conditions: time 12.0 hrs
MCF7 = experiment: Cytotoxicity against human MCF7 cells assessed as reduction in cell viability incubated for 48 hrs by MTS assay; assay type: toxicity, cell-based; conditions: mcf7
[8] = AUC (last) in mouse at 10 mg/kg, po; assay type: ADME, organism-based; conditions: in vivo
Plasmodium falciparum [9] = experiment: as §1, with “artemisinin-resistant/piperaquine-sensitive” for “artemisinin-sensitive”, “5202 (MRA-1240)” for “5188 (MRA-1239)”, “for 6 to” for “for”; assay type: functional, organism-based
Plasmodium berghei [10] = experiment: as §2, with “decrease” for “reduction”, “recrudescence” for “parasitemia”, “after 90” for “for 2 to 16”; assay type: functional, organism-based; conditions: dose 15-50 mg/kg, time 90.25 day
Plasmodium berghei [11] = experiment: Antimalarial activity against Plasmodium berghei sporozoites expressing luciferase infected in human HepG2-A16-CD81 cells assessed as reduction in parasite growth incubated for 18 hrs; assay type: functional, organism-based; conditions: HepG2-A16-CD81, 18 h
[12] = Selectivity index, ratio of EC50 for human HepG2 cells to EC50 for multidrug-resistant Plasmodium falciparum Dd2 at ring stage infected in A+ erythrocytes; assay type: toxicity, cell-based; conditions: read-out: Ratio EC50
Plasmodium falciparum [13] = experiment: Resistance index, ratio of EC50 for multidrug-resistant Plasmodium falciparum Dd2 at ring stage infected in A+ erythrocytes to EC50 for drug-sensitive Plasmodium falciparum 3D7 at ring stage infected in A+ erythrocytes; assay type: organism-based; conditions: human
Plasmodium falciparum [14] = experiment: Antimalarial activity against patient-derived ring-stage Plasmodium falciparum clinical isolate from Tororo town of Uganda infected in O+ RBCs assessed as reduction in parasitemia incubated for 72 hrs by SYBR green I dye based analysis; assay type: functional, organism-based, RBC; conditions: Erythrocyte
Plasmodium falciparum [15] = experiment: as §1, with “artemisinin/piperaquine-resistant” for “artemisinin-sensitive”, “6261 (MRA-1284)” for “5188 (MRA-1239)”, “for 6 to” for “for”; assay type: functional, organism-based
[16] = Half life in mouse at 10 mg/kg, po; assay type: ADME, organism-based; conditions: in vivo
Plasmodium falciparum [17] = experiment: Antiplasmodial activity against multidrug-resistant Plasmodium falciparum Dd2 at ring stage infected in A+ erythrocytes assessed as parasite growth reduction incubated for 72 hrs by SYBR Green I dye based analysis; assay type: functional, organism-based; conditions: Dd2, Erythrocyte
Plasmodium falciparum [18] = experiment: Antimalarial activity against synchronized Plasmodium falciparum Dd2 assessed as delay in rightward shift of YOYO-1 peak at 5 times EC50 treated 18 to 30 hrs post-invasion measured after 54 hrs post-invasion by flow cytometry; assay type: functional, organism-based; conditions: time 24-36 hrs
Plasmodium falciparum [19] = experiment: Antimalarial activity against synchronized Plasmodium falciparum Dd2 assessed as reduction in parasite growth at early asexual stage treated 26 hrs post-invasion measured after 72 hrs by SYBR green I dye based microscopy; assay type: functional, organism-based
Plasmodium falciparum [20] = experiment: Antimalarial activity against synchronized early ring stage Plasmodium falciparum 3D7 (MRA-152) clinical isolate assessed as decrease in parasite survival at ring stage at 10 times EC50 treated for 48 hrs followed by compound removal measured after 72 hrs by geimsa staining based microscopy; assay type: functional, organism-based
Plasmodium falciparum [21] = experiment: Antiplasmodial activity against drug-sensitive Plasmodium falciparum 3D7 at ring stage infected in A+ erythrocytes assessed as parasite growth reduction incubated for 72 hrs by SYBR Green I dye based analysis; assay type: functional, organism-based; conditions: 3D7, Erythrocyte
Plasmodium falciparum [22] = experiment: Antimalarial activity against synchronized Plasmodium falciparum Dd2 assessed as reduction in parasite growth at early asexual stage treated 36 hrs post-invasion measured after 72 hrs by SYBR green I dye based microscopy; assay type: functional, organism-based
Ephrin type-A receptor 2 = Ephrin type-A receptor 2 (Homo sapiens, UniProt P29317); experiment: Inhibition of human EphA2 by FRET assay
Plasmodium falciparum [23] = experiment: as §1, with “artemisinin/piperaquine-resistant” for “artemisinin-sensitive”, “6261 (MRA-1284)” for “5188 (MRA-1239)”, “6” for “48”; assay type: functional, organism-based
Plasmodium falciparum [24] = experiment: Antimalarial activity against synchronized Plasmodium falciparum 3D7 assessed as reduction in parasite growth at early asexual stage treated 6 hrs post-invasion measured after 72 hrs by SYBR green I dye based microscopy; assay type: functional, organism-based
Plasmodium falciparum [25] = experiment: Antimalarial activity against Plasmodium falciparum harboring AcAS A597V mutation assessed as reduction in parasitemia incubated for 72 hrs by SYBR green I dye based analysis; assay type: functional, organism-based
[26] = Volume of distribution at steady state in mouse at 2 mg/kg, iv; assay type: ADME, organism-based; conditions: in vivo, read-out: Vdss
[27] = Half life in mouse at 2 mg/kg, iv; assay type: ADME, organism-based; conditions: in vivo
[28] = Clearance in mouse at 2 mg/kg, iv; assay type: ADME, organism-based; conditions: in vivo
[29] = AUC (last) in mouse at 2 mg/kg, iv; assay type: ADME, organism-based; conditions: in vivo
Plasmodium falciparum [30] = experiment: as §1, with “artemisinin-resistant” for “artemisinin-sensitive”, “5202 (MRA-1240)” for “5188 (MRA-1239)”; assay type: functional, organism-based
Plasmodium falciparum [31] = experiment: Antimalarial activity against synchronized Plasmodium falciparum Dd2 assessed as reduction in parasite growth at early asexual stage treated 16 hrs post-invasion measured after 72 hrs by SYBR green I dye based microscopy; assay type: functional, organism-based
Plasmodium falciparum [32] = experiment: as §1, with “artemisinin/piperaquine-sensitive” for “artemisinin-sensitive”, “for 6 to” for “for”; assay type: functional, organism-based
Plasmodium falciparum [33] = experiment: Antimalarial activity against patient-derived ring-stage Plasmodium falciparum clinical isolate from Patongo town of Uganda infected in O+ RBCs assessed as reduction in parasitemia incubated for 72 hrs by SYBR green I dye based analysis; assay type: functional, organism-based, RBC; conditions: Erythrocyte
[34] = AUC (infinity) in mouse at 10 mg/kg, po; assay type: ADME, organism-based; conditions: in vivo
Plasmodium berghei [35] = experiment: as §2, with “15” for “15 to 50”, “measured after” for “measured for”, “to 6” for “to 16”, “by IVIS imaging analysis” for “by SYBR Green I dye based flow cytometry”; assay type: functional, organism-based; conditions: time 2.25-6.25 day
Plasmodium falciparum [36] = experiment: Resistance development in blood-stage Plasmodium falciparum Dd2-B2 assessed as drug irresistibility at 1 to 2 times EC50 measured till death; assay type: functional, organism-based
Plasmodium falciparum [37] = experiment: microbe, parasite or virus in culture; conditions: Dd2, 72 h
Description: Antiplasmodial activity against asynchronous Plasmodium falciparum Dd2 assessed as parasite growth reduction incubated for 72 hrs by SYBR Green I dye based analysis

[38] = Tmax in mouse at 10 mg/kg, po; assay type: ADME, organism-based; conditions: in vivo

Chain of Ephrin type-A receptor 2 (P29317 whole entry): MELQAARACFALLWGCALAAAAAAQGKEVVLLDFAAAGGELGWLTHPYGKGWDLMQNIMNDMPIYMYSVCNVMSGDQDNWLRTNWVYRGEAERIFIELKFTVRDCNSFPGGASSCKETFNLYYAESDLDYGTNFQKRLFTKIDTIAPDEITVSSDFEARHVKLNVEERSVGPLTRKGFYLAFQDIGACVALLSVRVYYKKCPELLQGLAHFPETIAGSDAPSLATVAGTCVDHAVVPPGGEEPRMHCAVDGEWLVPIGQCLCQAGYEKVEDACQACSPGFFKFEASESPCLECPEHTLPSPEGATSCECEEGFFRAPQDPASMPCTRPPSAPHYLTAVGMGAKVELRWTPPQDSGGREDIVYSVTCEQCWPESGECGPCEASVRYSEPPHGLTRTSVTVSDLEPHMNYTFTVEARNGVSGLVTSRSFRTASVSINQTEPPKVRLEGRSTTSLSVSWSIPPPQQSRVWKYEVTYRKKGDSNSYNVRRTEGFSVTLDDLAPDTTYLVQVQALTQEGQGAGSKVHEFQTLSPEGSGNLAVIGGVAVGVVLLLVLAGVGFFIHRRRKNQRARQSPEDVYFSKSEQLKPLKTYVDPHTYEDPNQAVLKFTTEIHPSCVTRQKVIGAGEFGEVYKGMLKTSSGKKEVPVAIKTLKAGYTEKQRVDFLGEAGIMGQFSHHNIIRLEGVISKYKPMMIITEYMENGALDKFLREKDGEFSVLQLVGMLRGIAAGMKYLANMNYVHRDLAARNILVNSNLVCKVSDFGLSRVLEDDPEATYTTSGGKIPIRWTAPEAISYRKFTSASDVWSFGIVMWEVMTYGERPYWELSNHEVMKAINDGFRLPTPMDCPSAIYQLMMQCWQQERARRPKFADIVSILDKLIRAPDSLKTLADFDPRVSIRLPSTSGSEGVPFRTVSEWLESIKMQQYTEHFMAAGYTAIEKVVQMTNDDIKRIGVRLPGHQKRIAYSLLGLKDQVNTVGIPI

For `CCN1CCN(Cc2ccc(NC(=O)c3cc(Cl)cc(NC(=O)c4cncc(-c5cccs5)c4)c3)cc2C(F)(F)F)CC1`, the t1/2 [1] was 79.5 min, the Activity (Plasmodium falciparum [2]) was “Active” and the Time (Plasmodium falciparum [3]) was 0 h. For the same compound, the Activity (Plasmodium berghei [4]) was “Active”, the intrinsic clearance [5] was 9 µL/min/mg and the EC50 (Plasmodium falciparum [6]) was 22.9 nM. For the same compound, the Activity (Plasmodium falciparum [7]) was “Active”, the EC50 (MCF7) was 3.51 µM and the AUC(0-t) [8] was 866 ng·h/mL. For the same compound, the EC50 (Plasmodium falciparum [9]) was 72.2 nM, the Activity (Plasmodium berghei [10]) was “Active” and the EC50 (Plasmodium berghei [11]) was 1770 nM. For the same compound, the selectivity ratio [12] was 45, the “Ratio EC50” value (Plasmodium falciparum [13]) was 1.4 and the EC50 (Plasmodium falciparum [14]) was 9.2 nM. For the same compound, the EC50 (Plasmodium falciparum [15]) was 108 nM, the half-life [16] was 343 min and the EC50 (Plasmodium falciparum [17]) was 58 nM. The Activity (Plasmodium falciparum [18]) was “Active”, the EC50 (Plasmodium falciparum [19]) was 69.7 nM and the Activity (Plasmodium falciparum [20]) was “Active”. For the same compound, the EC50 (Plasmodium falciparum [21]) was 42 nM, the EC50 (Plasmodium falciparum [22]) was 80 nM and the IC50 (Ephrin type-A receptor 2) was > 10 µM. The Activity (Plasmodium falciparum [23]) was “inactive”, the EC50 (Plasmodium falciparum [24]) was 29.6 nM and the EC50 (Plasmodium falciparum [25]) was 40.5 nM. It also gave a Vd [26] of 0.84 L/kg, a half-life [27] of 250 min and a clearance [28] of 4.3 mL/min/kg. The AUC(0-t) [29] was 6860 ng·h/mL, the Activity (Plasmodium falciparum [30]) was “Active” and the EC50 (Plasmodium falciparum [31]) was 37.2 nM. For the same compound, the EC50 (Plasmodium falciparum [32]) was 73.7 nM, the EC50 (Plasmodium falciparum [33]) was 9.2 nM and the AUC(0-inf) [34] was 1640 ng·h/mL. For the same compound, the Activity (Plasmodium berghei [35]) was “Active”, the Activity (Plasmodium falciparum [36]) was “Active” and the EC50 (Plasmodium falciparum [37]) was 80 nM. For the same compound, the Tmax [38] was 4.67 h.
